Source: US6686450B1, “Immunosuppressive agents that inhibit calcineurin function and uses of these agents” (Massachusetts Institute of Technology, priority 1998, dated 2004)
“Also recorded” adds a separate entry of the source.

Tests used:
Format in all cases: cell-based
[1] = target: T1, interaction between Cabin 1-14 and full length calcineurin β2 (H160N) (Homo sapiens, UniProt P16298, H160N); test: mammalian two-hybrid assay in Jurkat T cells (luciferase reporter); details: Jurkat T cells, PMA/ionomycin stimulated, drug added 30 min prior to stimulation
T1 construct: expressed in transfected cells; host or cells: Jurkat T cells
Description: A mammalian two-hybrid system was established in Jurkat T cells by fusing calcineurin with the Gal4 DNA binding domain and Cabin 1-14 with the VP16 activation domain (Hsu et al., Proc. Natl. Acid Sci. USA 91:3181-3185 (1994)). The fusion plasmids for mammalian two-hybrid assays were constructed as follows: The cDNAs of calcineurin Aβ2 wild type and H160N mutant were fused to the GAL4 DB in the pM vector (obtained from Clontech, Palo Alto, Calif.) (pMCNβ2 and PMCNβ2 (H160N), and the cDNA of Cabin 1-14 was fused to the VP16 AD in the pVP16 vector (pVPCabin 1-14). Jurkat T cells were transfected with 5 μg of pMCβ2 or pMCβ2 (H160N), 5 μg of pVPCabin 1-14, 1 μg of pCMV-βGal, and 2 μg of pg5Luc, a luciferase reporter plasmid containing GAL4 promoter, by electroporation (960 μF, 250V). After 48 hr, cells were stimulated with 40 nM PMA and 2.5 μM ionomycin, either alone or in combination, for 6 hr before luciferase activity was measured for each sample. The luciferase reporter gene assay reagents were obtained from Promega, Madison, Wis., and the assay was performed per manufacturer's instructions. […] Where appropriate, the transfection efficiency was measured by co-transfecting 2 μg of CMV-driven β-galactosidase expression vector and measuring enzymatic β-galactosidase activity (Ausubel et al., Current Protocols in Molecular Biology (John Wiley & Sons, Inc., New York, 1994)).

[2] = test system: IL-2 promoter; test: IL-2 promoter activation in T cells expressing calcineurin mutant; details: expressed in T cells
[3] = test system: IL-2 promoter; test: IL-2 promoter luciferase reporter gene assay in Jurkat T cells; details: PMA and ionomycin

## bisindolylmaleimide
[1]
  sensitivity of interaction between full length calcineurin β2 (H160N) and Cabin 1-14 to drug: inhibited the interaction between calcineurin and Cabin 1-14 in a dose-dependent manner; also recorded: sensitive

## H 160N: catalytically inactive mutant of the β2 isoform of calcineurin, used as bait
[2]
  blocking of PMA and ionomycin-stimulated IL-2 promoter activation: over 60%

## Cabin 1: isolated calcineurin binding polypeptide, amino acid sequence SEQ ID NO:1, 2220 amino acids
[3]
  effect on IL-2 reporter gene activation: lower potency
[3]; listed as Cabin1
  effect on IL-2 reporter gene activation: inhibit

## cyclosporin A [CsA]
[1]
  sensitivity of interaction between full length calcineurin β2 (H160N) and Cabin 1-14 to drug: sensitive
